≈ marks a conversion by molar mass, not a printed value. Calls of active or inactive are those of the source. The calls are words filed in the database; no cut-off is given here.
Tests used:
[1] = system: Candida albicans; experiment: Increase in antifungal activity against Candida albicans K1 biofilm cells assessed as 50 percent reduction of optical density in presence of beta 1,3 glucanase after 48 hrs by XTT assay; assay type: functional
[2] = system: Candida albicans; experiment: Increase in antifungal activity against Candida albicans K1 biofilm cells assessed as 80 percent reduction of optical density in presence of beta 1,3 glucanase after 48 hrs by XTT assay; assay type: functional
[3] = system: Candida albicans; experiment: Antifungal activity against planktonic Candida albicans K1; assay type: functional
[4] = system: Candida albicans; experiment: Effect on biofilm cell viability of Candida albicans K1 at 1000 ug/ml; assay type: functional, organism-based
[5] = system: Candida albicans; experiment: Antifungal activity against planktonic Candida albicans K1 in presence of biofilm material after 48 hrs by CLSI M27 A micro-broth method; assay type: functional; settings: K1, 48 h
[6] = system: Candida albicans; experiment: Antifungal activity against planktonic Candida albicans K1 in presence of laminarin after 48 hrs by CLSI M27 A micro-broth method; assay type: functional; settings: K1, 48 h
[7] = system: Candida albicans; experiment: Increase in drug binding to Candida albicans K1 biofilm cell walls, supernatant and matrix as compared to respective planktonic controls; assay type: functional, organism-based
[8] = system: Candida albicans; experiment: Antifungal activity against Candida albicans K1 biofilms in in-vivo rat catheter model in presence of beta 1,3-glucanase; assay type: functional, organism-based

SMILES | fractional inhibitory concentration index (FICI) [1] | fractional inhibitory concentration index (FICI) [2] | MIC [3] | Activity [4] | MIC [5] | MIC [6] | Activity [7] | Activity [8]
C[C@@H]1[C@H](O)[C@@H](C)/C=C/C=C/C=C/C=C/C=C/C=C/C=C/[C@H](O[C@@H]2O[C@H](C)[C@@H](O)[C@H](N)[C@@H]2O)C[C@@H]2O[C@](O)(C[C@@H](O)C[C@@H](O)[C@H](O)CC[C@@H](O)C[C@@H](O)CC(=O)O[C@H]1C)C[C@H](O)[C@H]2C(=O)O [AMPHOTERICIN B] | 0.2 | 0.21 |  |  |  |  |  | 
OC(Cn1cncn1)(Cn1cncn1)c1ccc(F)cc1F [FLUCONAZOLE] | 0.31 | 0.1 | 0.5 µg/mL (≈ 1.63 µM) | inactive | > 128 µg/mL | > 128 µg/mL | Active | Active

— ChEMBL document CHEMBL1142202, “Putative role of beta-1,3 glucans in Candida albicans biofilm resistance” (2007)
